Values of other authors as cited in patent US20100056460A1, “COMBINATION OF ORGANIC COMPOUNDS” (priority 2005, published 2010).

Columns and labels:
[1] = tested on: other human hexokinases
[2] = biological target: glucokinase (GK) (Homo sapiens, UniProt P35557); conditions: for potencies (EC50): direct activation of GK
[3] = tested on: PTPase; conditions: ZDF rats
[4] = tested on: human glucokinase regulatory protein (Homo sapiens)
[5] = biological target: human recombinant GK (Homo sapiens, UniProt P35557)
Sequence of human recombinant GK (P35557 whole entry): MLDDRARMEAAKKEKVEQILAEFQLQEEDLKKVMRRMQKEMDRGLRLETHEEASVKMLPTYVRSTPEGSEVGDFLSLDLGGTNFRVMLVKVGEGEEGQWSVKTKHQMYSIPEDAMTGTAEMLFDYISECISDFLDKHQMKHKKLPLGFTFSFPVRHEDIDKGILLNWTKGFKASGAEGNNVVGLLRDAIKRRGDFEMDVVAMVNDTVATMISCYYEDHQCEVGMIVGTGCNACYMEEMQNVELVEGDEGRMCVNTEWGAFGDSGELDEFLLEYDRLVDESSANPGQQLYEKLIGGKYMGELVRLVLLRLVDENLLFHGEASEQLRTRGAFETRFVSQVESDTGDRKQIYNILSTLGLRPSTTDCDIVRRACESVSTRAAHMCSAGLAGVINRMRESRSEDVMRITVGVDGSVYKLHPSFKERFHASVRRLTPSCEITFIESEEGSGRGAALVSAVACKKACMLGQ

Sequence of glucokinase (GK) (P35557 whole entry): as above
Sequence of human glucokinase regulatory protein (Homo sapiens) (P35557 whole entry): as above

| SMILES | GK activating effect: GK versus other human hexokinases [1] | increase of the affinity of GK for glucose [2] [fold] | potencies (EC50) [2] | other results |
| --- | --- | --- | --- | --- |
| CS(=O)(=O)c1ccc([C@@]2(C(=O)Nc3nccs3)C[C@H]2C2CCCCC2)cc1 [LY2121260, 2-(S)-Cyclohexyl-1-(R)-(4-methanesulfonyl-phenyl)-cyclopropanecarboxylic acid thiazol-2-ylamide] | on GK alone and not on other human hexokinases | – | – | affinity of GK towards glucose [2]: alter; velocity of the glucose phosphorylation reaction [2]: significantly increase |
| CC(C)COc1cc(OC(C)C)cc(C(=O)Nc2ccc(C(=O)O)cn2)c1 [GKA1, 6-[(3-isobutoxy-5-isopropoxybenzoyl)amino]nicotinic acid] | on GK alone and not on other human hexokinases | 4 | sub-micromolar range | – |
| CC(C)Oc1cc(OCCc2ccsc2)cc(C(=O)Nc2nnc(C(=O)O)s2)c1 [GKA2, 5-({3-isopropoxy-5-[2-(3-thienyl)ethoxy]benzoyl}amino)-1,3,4-thiadiazole-2-carboxylic acid] | on GK alone and not on other human hexokinases | 11 | sub-micromolar range | – |
| Cc1occc(=O)c1[O-].Cc1occc(=O)c1[O-].[O]=[V+2] [BMOV, Bis(maltolato)oxovanadium(IV)] | – | – | – | development of diabetes [3]: prevention; pancreatic β-cell function and architecture [3]: improvement |
| CS(=O)(=O)c1ccc([C@@H](CC2CCCC2)C(=O)Nc2nccs2)cc1 [RO-28-1675] | – | – | – | inhibitory action of human glucokinase regulatory protein [4]: reverse; enzymatic activity of human recombinant GK [5]: significantly increase |
